In PMC4139342, “Pharmacokinetics-Pharmacodynamics Analysis of Bicyclic 4-Nitroimidazole Analogs in a Murine Model of Tuberculosis” (PLoS ONE, 2014):
Values after ≈ are worked out from the molar mass of the structure shown. Read-outs that look alike come from different tables or passages of the source.

What was measured:
[1] = system: M. tuberculosis (Mtb) (H37Rv, ATCC 27294); experiment: microbe, parasite or virus in culture; assay type: cell-based; conditions: for MIC99: Mycobacterium tuberculosis
[2] = Cytotoxicity against THP1 macrophage cell lines; assay type: cell-based; conditions: human
Mtb H37Rv = experiment: In vivo mouse efficacy, established murine TB model; set-up: species or system Balb/c mice; conditions: for Efficacy compared with PA-824, in words: significance at P<0.05; for Dose dependence of efficacy, in words: 25 versus 100 mg/kg oral daily for 4 weeks; for log reduction at 25 mg/kg / log reduction at 100 mg/kg: Mycobacterium tuberculosis, H37RV, po, 672 h, read-out: Mean log lung CFU reduction ± SEM compared to untreated controls
Experimental: In vivo mouse efficacy studies were determined after intranasal infection of Balb/c mice with 10^3 cfu Mtb H37Rv. Treatment was initiated 4 weeks after infection. Compounds were orally administered in CM-2 formulation for 4 weeks daily. Bacterial loads were determined at 2 and 4 weeks post treatment. Statistical analysis was done by a one-way analysis of variance, followed by a multiple comparison analysis of variance by a one-way Tukey test (GraphPad Prism, version 5.02, San Diago, California USA, www.graphpad.com). Differences were considered statistically significant at the 95% level of confidence.

[3] = not given; remark: listed apart in the source
[4] = female, CD-1, mouse, in vivo, po, 25 mg/kg
[5] = female, CD-1, mouse, in vivo, po
in vivo [6] = conditions: female, CD-1, mouse, po
in vivo [7] = conditions: female, CD-1, mouse, iv; for clearance: i.v. CL
in vivo [8] = conditions: female, CD-1, mouse, po; remark: listed apart in the source
physchem [9] = experiment: physchem
in vitro [10] = conditions: human, Caco-2
in vitro [11] = conditions: mouse, plasma
[12] = In vivo lung PK after oral dosing; conditions: female, CD-1, mouse
[13] = In vivo plasma PK after intravenous dosing; conditions: mice
[14] = In vivo plasma PK after oral dosing in CM-2 formulation; conditions: female, CD-1, mouse, plasma, po
[15] = system: CaCo-2 colon carcinoma cell lines
physchem [16] = conditions: pH 6.8, aqueous buffer, thermodynamic from solid
[17] = 25 mg/kg oral daily for 4 weeks, 5 animals
[18] = 25 mg/kg oral daily for 4 weeks
[19] = 100 mg/kg oral daily for 4 weeks, 5 animals
[20] = 100 mg/kg oral daily for 4 weeks

Q: For `O=[N+]([O-])c1cn2c(n1)OC[C@@H](NCc1ccc(OC(F)(F)F)c(F)c1)C2` [NI-136], which “In vitro potency relative to PA-824” value [1] is on record?
A: 10 times

Q: And the MIC99 [1]?
A: 0.03 µg/mL (≈ 0.0797 µM)

Q: What about the CC50 [2] of the same molecule?
A: > 10 µg/mL

Q: And the “Mean log lung CFU reduction ± SEM compared to untreated controls” value (Mtb H37Rv; [17])?
A: 1.31 ± 0.06 log CFU

Q: What about the “Mean log lung CFU ± SEM” value (Mtb H37Rv; [17]) of the same molecule?
A: 4.93±0.06 log CFU

Q: What about the “Efficacy compared with PA-824, in words” value (Mtb H37Rv; [18]) of the same molecule?
A: comparable efficacy to PA-824

Q: What about the “Mean log lung CFU ± SEM” value (Mtb H37Rv; [19]) of the same molecule?
A: 4.18±0.17 log CFU

Q: And the “Efficacy compared with PA-824, in words” value (Mtb H37Rv; [20])?
A: comparable efficacy to PA-824

Q: And the “Dose dependence of efficacy, in words” value (Mtb H37Rv)?
A: dose dependent increase in efficacy

Q: What about the log reduction at 25 mg/kg (Mtb H37Rv; [17]) of the same molecule?
A: 1.31 ± 0.06

Q: What about the log reduction at 100 mg/kg (Mtb H37Rv; [19]) of the same molecule?
A: 2.06 ± 0.17

Q: And the “Solubility pH 6.8” value?
A: 43.0 µg/mL

Q: What about the “PAMPA %FA” value [3] of the same molecule?
A: 83%

Q: What about the “PAMPA Log Pe” value [3] of the same molecule?
A: –4.7 cm/sec

Q: What about the “Plasma free fCmax” value [4] of the same molecule?
A: 0.3 µg/mL

Q: And the “Absolute lung concentrations, fold lower than PA-824” value ([5]; 25 mg/kg)?
A: 2.5-7.5 fold

Q: And the “Lung AUC24” value ([5]; 25 mg/kg)?
A: 39.8 µg·h/g

Q: What about the “Lung Cmax” value ([5]; 25 mg/kg) of the same molecule?
A: 7.2 µg/g

Q: What about the AUC (in vivo [6]; 25 mg/kg) of the same molecule?
A: 10700 ng·h/mL

Q: And the Cmax (in vivo [6]; 25 mg/kg)?
A: 2000 ng/mL

Q: What about the Tmax (in vivo [6]; 25 mg/kg) of the same molecule?
A: 0.5 h

Q: What about the bioavailability (in vivo [6]; 25 mg/kg) of the same molecule?
A: 64%

Q: What about the Vd (in vivo [7]; 5 mg/kg) of the same molecule?
A: 1.8 L/kg

Q: What about the clearance (in vivo [7]; 5 mg/kg) of the same molecule?
A: 25.1 mL/min/kg

Q: What about the Tmax (in vivo [8]; 25 mg/kg) of the same molecule?
A: 0.5 h

Q: What about the Kp (in vivo [8]; 25 mg/kg, Lung to Plasma ratio AUC24) of the same molecule?
A: 3.7

Q: What about the Kp (in vivo [8]; 25 mg/kg, Lung to Plasma ratio Cmax) of the same molecule?
A: 3.6

Q: What about the logP (physchem [9]) of the same molecule?
A: 2.6

Q: What about the Papp A→B (in vitro [10]) of the same molecule?
A: 15.4 ×10⁻⁶ cm/s

Q: What about the Papp B→A (in vitro [10]) of the same molecule?
A: 12.6 ×10⁻⁶ cm/s

Q: What about the efflux ratio (in vitro [10]) of the same molecule?
A: 0.8

Q: What about the fraction unbound (in vitro [11]) of the same molecule?
A: 0.173

Q: And the half-life ([12]; 25 mg/kg)?
A: 2.5 h

Q: And the “T1/2 (i.v)” value ([13]; i.v. dosing at 5 mg/kg)?
A: 1.3 h

Q: What about the half-life ([14]; 25 mg/kg) of the same molecule?
A: 2 h

Q: What does the source list for `O=C(CO[C@@H]1COc2nc([N+](=O)[O-])cn2C1)N1CCN(c2ccc(C(F)(F)F)cn2)CC1` [NI-644]?
A: MIC99 [1]: 0.09 µg/mL (≈ 0.197 µM); CC50 [2]: > 10 µg/mL; Mean log lung CFU ± SEM (Mtb H37Rv; [17]): 6.18±0.03 log CFU; Efficacy compared with PA-824, in words (Mtb H37Rv; [18]): significantly (P<0.05) less efficacious than PA-824; Mean log lung CFU ± SEM (Mtb H37Rv; [19]): 6.09±0.07 log CFU; Efficacy compared with PA-824, in words (Mtb H37Rv; [20]): significantly (P<0.05) less efficacious than PA-824; Dose dependence of efficacy, in words (Mtb H37Rv): no dose-dependent increase in bactericidal activity; log reduction at 25 mg/kg (Mtb H37Rv; [17]): 0.48 to 0.89; log reduction at 100 mg/kg (Mtb H37Rv; [19]): 0.57 ± 0.07; PAMPA %FA [3]: 83%; PAMPA Log Pe [3]: –4.9 cm/sec; Permeability in the Caco-2 assay, in words [15]: moderate permeability; Lung AUC24 ([5]; 50 mg/kg): 38.1 µg·h/g; Lung Cmax ([5]; 50 mg/kg): 7.5 µg/g; AUC (in vivo [6]; 50 mg/kg): 89500 ng·h/mL; Cmax (in vivo [6]; 50 mg/kg): 16200 ng/mL; Tmax (in vivo [6]; 50 mg/kg): 1 h; bioavailability (in vivo [6]; 50 mg/kg): 100%; Vd (in vivo [7]; 10 mg/kg): 0.7 L/kg; clearance (in vivo [7]; 10 mg/kg): 9.5 mL/min/kg; Tmax (in vivo [8]; 50 mg/kg): 1 h; Kp (in vivo [8]; 50 mg/kg, Lung to Plasma ratio AUC24): 0.4; Kp (in vivo [8]; 50 mg/kg, Lung to Plasma ratio Cmax): 0.5; solubility (physchem [16]): 14 µg/mL (≈ 30.7 µM); logP (physchem [9]): 2.6; Papp A→B (in vitro [10]): 2.8 ×10⁻⁶ cm/s; Papp B→A (in vitro [10]): 13.7 ×10⁻⁶ cm/s; efflux ratio (in vitro [10]): 4.8; fraction unbound (in vitro [11]): 0.1; half-life ([12]; 50 mg/kg): 2.9 h; half-life ([13]; female, CD-1, mouse, plasma, iv, 10 mg/kg, T1/2 (i.v), i.v. dosing at 10 mg/kg): < 1 h; T1/2 (i.v) ([13]; i.v. dosing at 10 mg/kg, 10 mg/kg): 0.9 h; half-life ([14]; 50 mg/kg): 3.6 h
